Data from article PMC8942850, “Boron clusters as broadband membrane carriers” (Nature, 2022).

Experiments:
[1] = U-tube transport experiment across a bulk chloroform layer; details: trans: 2 mM HPTS, pH 7.4
Source text: U-tube transport experiments, across a bulk chloroform layer, unambiguously confirmed that the brominated cluster served as a non-covalent carrier across a hydrophobic bulk barrier (Extended Data Fig. 2a, b). To quantitatively characterize the transport efficiency of the new cluster carriers, the normalized fluorescence responses in the vesicle experiments (Fig. 2b) were plotted against cluster concentration to produce dose–response curves (Fig. 2c and Extended Data Fig. 3a). […] This activity rivals the pyrenebutyrate (1) gold standard in the field (Ea ≈ 5)[18], which we used throughout as a control.
The U-tubes were home-made, similarly to those of Rebek and co-workers[52] and Matile and co-workers[19], and consisted of a small beaker with a central glass barrier separating the two aqueous phases, namely cis ([…]) and trans (receiving phase), but enabling the placement of an interfacing chloroform layer below the cis and trans phases. A 3 ml portion of CHCl3 was located in the U-tube and 1 ml of the cis and trans phases were added. The organic phase was stirred at 700 r.p.m. at room temperature. Aliquots (20 μl) from the aqueous trans phase were taken at different times, diluted to 450 μl with buffer (10 mM Tris, 107 mM NaCl, pH 7.4) and measured by fluorescence. […]

[2] = Carboxyfluorescein (CF) leakage assay, anionic vesicles; details: anionic liposomes DMPE/DPPG/CHOL 1/2/1, 13 µM phospholipids, 10 mM Tris, 140 mM NaCl, pH 7.4; CF fluorescence; Hill analysis; read-out: EC50 membrane-disrupting activity (CF leakage)
Procedure: A thin lipid film was prepared by evaporating a lipid solution with a stream of nitrogen and then dried in vacuo overnight. For the zwitterionic vesicles, 25 mg EYPC in 1 ml of CHCl3 was used, and for the anionic vesicles, DMPE/DPPG/CHOL (4.4/10.4/2.6 mg, 1/2/1 molar ratio) in a 1:1 mixture of CHCl3 and MeOH (1 ml) was used. […]
For leakage experiments with the lipid⊃CF vesicles, stock solutions (6 µl) were diluted with the respective buffer in a disposable plastic cuvette and gently stirred (total volume 2,000 µl, final lipid concentration 13 µM). CF fluorescence was monitored at λem = 517 nm (λex = 492 nm) as a function of time after addition of the respective activating or disrupting agent (cluster, WR7 or pyrenebutyrate) at 50 s, and Triton X-100 (24 µl 1.2% (wt/vol)) at 600 s, the latter to lyse the vesicles, for calibration. Fluorescence intensities were normalized to fractional emission intensity as I(t) = (It − I0)/(I∞ − I0), where I0 = It before disrupting agent addition and I∞ = It after Triton X-100 lysis. […]
Extended Data Fig. 1 Assays testing for stability vs leakage of the vesicles. a, Response of the HPTS/DPX assay towards a membrane-disrupting agent and chemical structures of the fluorescent dye HPTS and the quencher DPX. In this assay, large unilamellar vesicles are loaded with the HPTS/DPX probe/quencher pair, such that the fluorescence of HPTS is quenched. […]

HeLa cells = assay: Flow cytometry of total TAMRA-R8 uptake; format: cell-based; details: for mean_of_medians: Extended Data Fig.5a, mean of n = 3
Procedure: HeLa cells were seeded at 10,000 cells per well in 96-well plates. The next day, they were incubated for 1 h with the indicated compounds diluted in HKR. Cells were subsequently washed for 5 min with HKR containing 0.1 mg ml^−1 heparin, washed again with HKR and trypsinized. Trypsin was neutralized with PBS containing 2% FBS and 5 mM EDTA. TAMRA fluorescence was excited with a green laser (532 nm) and measured on a Guava easyCyte BG HT collecting the emission at 620/52 nm (Orange-G channel) and using InCyte v.3.2 (GuavaSoft, Millipore). Data were analysed with R (v.4.0.3)[54] and the packages CytoExploreR (v.1.0.8)[56] and ggcyto (v.1.18.0)[57] Cells with typical FSC and SSC parameters were selected and the median fluorescence intensity calculated for each sample. Each condition was measured in triplicate.
Cells were incubated with 1 µM peptide, in the absence or presence of 10 µM cluster for 1 h. […] After medium removal and solubilization with DMSO, the absorbance at 570 nm was measured. Values were normalized to the untreated cell control (100%). Data are mean ± s.d. of three replicates. Source data

In the case of B12Br12^2−, the “Transport of DPX across chloroform, without peptide cargo” value ([1]; cis: 40 μM cluster and 20 mM DPX) is reported as “faster and more efficient transport of DPX”, the “Transport of DPX across chloroform, with peptide cargo” value ([1]; cis: 40 μM cluster, 20 μM WR7, 20 mM DPX, 10 mM Tris, 107 mM NaCl, HPTS quenching) is reported as “the fastest and most efficient transport of DPX” and the EC50 [2] is reported as 960 ± 100 µM. For the same substance, the mean_of_medians (HeLa cells; 10 uM cluster, Tm-R8 0 uM) was 56.9232, the mean_of_medians (HeLa cells; 10 uM cluster, Tm-R8 1 uM) was 648.983 and the mean_of_medians (HeLa cells; 50 uM cluster, Tm-R8 0 uM) was 50.2824. For the same substance, the mean_of_medians (HeLa cells; 50 uM cluster, Tm-R8 1 uM) was 905.363 and the “Enhancement of total TAMRA-R8 uptake (flow cytometry)” value (HeLa cells; HeLa, 1 µM TAMRA-R8, 10 or 50 µM cluster, 1 h) was “most active carrier”.
